These are literature values, as cited in patent US20250325549A1, “ORAL TABLET COMPOSITION OF RUXOLITINIB AND METHOD FOR PREPARING SAME” (SAMYANG HOLDINGS CORPORATION, priority 2021, published 2025).

For this data set the following is noted: Shi et al., J. Clin. Pharmacol. 2012.

SMILES strings stand for the structures.

As for `N#CC[C@H](C1CCCC1)n1cc(-c2ncnc3[nH]ccc23)cn1` [Ruxolitinib, (3R)-3-cyclopentyl-3-[4-(7H-pyrrolo[2,3-d]pyrimidin-4-yl)pyrazol-1-yl]propanenitrile], the half-life entry is “approximately 3 hours”.
